Reference: patent publication US20120129858A1, “COMPOUNDS, COMPOSITIONS AND METHODS COMPRISING PYRIDAZINE SULFONAMIDE DERIVATIVES” (INSTITUTE FOR ONEWORLD HEALTH, priority 2009, published 2012)

Assays:
[1] = target: T1, CFTR (Homo sapiens, UniProt P13569); assay: T84 assay (FLIPR membrane potential dye, forskolin/IBMX-stimulated CFTR channel activity); format: cell-based; settings: average of at least 2 runs unless annotated n = 1
T1 construct: host or cells: T84 human colonic cells
Procedure: Human colonic T84 cells are acquired from the European Collection of Cell Cultures (ECACC) and are grown in standard culture conditions as described by the supplier. On the day before assay 25,000 T84 cells per well are plated into standard black walled, clear bottom 384-well assay plates in standard growth medium consisting of DMEM:F12 with 10% FBS and incubated overnight. On the day of the assay the plates are washed using a standard assay buffer (HBSS with 10 mM Hepes) and incubated for 15 minutes in serum free cell culture medium before the addition of a commercially available membrane potential sensitive fluorescent dye (FLIPR Red membrane potential dye, Molecular Devices Corporation). T84 cells are incubated with the FLIPR Red membrane potential dye for 45 minutes in the presence and absence of test compound before being transferred to a commercially available fluorescence imaging plate reader (FLIPR384, Molecular Devices Corporation). Fluorescence levels are monitored continuously every second for 150 seconds; after an initial 10 second baseline, CFTR channel activity is stimulated through the addition of 10 μM forskolin in the presence of 100 μM of the phosphodiesterase inhibitor iso-butyl-methylxanthine (IBMX). Addition of the forskolin leads to the activation of intracellular adenylyl cylase 1, elevating cAMP levels and results in the phosphorylation and opening of CFTR anion channels. CFTR channel opening causes chloride ion efflux and subsequent depolarization of the cells, which is measured by an increase in fluorescence. CFTR inhibitor compounds prevent cell depolarization and the associated increase in fluorescence.
Unless otherwise indicated, the IC50 values are reported as an average of at least 2 runs. Where only 1 run is used, it is indicated by the annotation “n=1.”

[2] = test system: cholera toxin (CTX) induced net fluid secretion in small intestine loops; set-up: species or system mice (CD1 strain); settings: mouse, in vivo

T1 sequence (P13569 whole entry): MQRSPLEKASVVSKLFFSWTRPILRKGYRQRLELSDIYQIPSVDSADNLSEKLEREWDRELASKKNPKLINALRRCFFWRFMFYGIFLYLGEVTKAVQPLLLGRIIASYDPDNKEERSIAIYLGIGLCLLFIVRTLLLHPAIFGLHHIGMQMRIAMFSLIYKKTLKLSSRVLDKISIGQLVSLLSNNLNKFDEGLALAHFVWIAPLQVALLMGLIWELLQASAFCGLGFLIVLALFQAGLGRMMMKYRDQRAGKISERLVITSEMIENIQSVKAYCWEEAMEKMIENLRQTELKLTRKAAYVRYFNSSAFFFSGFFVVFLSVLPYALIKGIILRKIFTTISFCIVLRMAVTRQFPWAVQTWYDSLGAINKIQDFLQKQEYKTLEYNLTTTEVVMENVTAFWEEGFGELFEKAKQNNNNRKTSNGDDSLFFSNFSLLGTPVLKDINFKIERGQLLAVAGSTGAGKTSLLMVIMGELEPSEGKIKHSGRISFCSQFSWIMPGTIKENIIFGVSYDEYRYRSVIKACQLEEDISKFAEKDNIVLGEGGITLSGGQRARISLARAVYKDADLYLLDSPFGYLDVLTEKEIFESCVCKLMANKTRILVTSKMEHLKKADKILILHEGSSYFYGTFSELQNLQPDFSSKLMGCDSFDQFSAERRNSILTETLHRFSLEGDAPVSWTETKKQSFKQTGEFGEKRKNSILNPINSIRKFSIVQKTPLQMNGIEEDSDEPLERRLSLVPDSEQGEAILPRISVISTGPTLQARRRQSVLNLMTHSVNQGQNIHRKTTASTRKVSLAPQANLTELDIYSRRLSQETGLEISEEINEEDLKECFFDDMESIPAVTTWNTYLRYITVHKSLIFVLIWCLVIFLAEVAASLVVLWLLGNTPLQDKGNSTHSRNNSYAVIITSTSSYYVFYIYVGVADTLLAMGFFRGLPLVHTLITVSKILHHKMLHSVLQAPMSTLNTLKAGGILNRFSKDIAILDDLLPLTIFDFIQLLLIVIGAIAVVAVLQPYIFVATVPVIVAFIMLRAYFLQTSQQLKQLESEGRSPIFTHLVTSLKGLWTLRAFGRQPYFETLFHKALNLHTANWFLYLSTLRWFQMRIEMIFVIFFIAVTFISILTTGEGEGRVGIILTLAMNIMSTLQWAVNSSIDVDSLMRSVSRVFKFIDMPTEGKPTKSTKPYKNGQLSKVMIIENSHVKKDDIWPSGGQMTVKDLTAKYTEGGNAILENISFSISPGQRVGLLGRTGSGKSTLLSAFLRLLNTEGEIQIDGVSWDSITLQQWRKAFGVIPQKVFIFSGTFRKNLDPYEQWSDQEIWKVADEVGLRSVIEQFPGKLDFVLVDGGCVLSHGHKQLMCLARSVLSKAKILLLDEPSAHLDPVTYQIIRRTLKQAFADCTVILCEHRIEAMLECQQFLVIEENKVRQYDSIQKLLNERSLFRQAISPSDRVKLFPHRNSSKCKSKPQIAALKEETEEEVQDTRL

| Compound | IC50 [1] [µM] | closed loop % inhibition [2] [%] |
| --- | --- | --- |
| CS(=O)(=O)Nc1cccc(-c2ccc(OCCc3ccc(Cl)cc3)nn2)c1 [Compound 1, N-(3-(6-(4-chlorophenethoxy)pyridazin-3-yl)phenyl)methanesulfonamide] | 9.79 |  |
| O=S(=O)(Nc1cccc(-c2ccc(OCCc3ccc(Cl)cc3)nn2)c1)C(F)(F)F [Compound 2, N-(3-(6-(4-chlorophenethoxy)pyridazin-3-yl)phenyl)-1,1,1-trifluoromethanesulfonamide] | 5.79 | 98.2 |
| N#Cc1ccc(S(=O)(=O)Nc2cccc(-c3ccc(OCCc4ccc(Cl)cc4)nn3)c2)cc1 [Compound 3, N-(3-(6-(4-chlorophenethoxy)pyridazin-3-yl)phenyl)-4-cyanobenzenesulfonamide] | 17.2 |  |
| O=S(=O)(Nc1cccc(-c2ccc(OCCc3ccc(Cl)cc3)nn2)c1)c1ccc(N2CCOCC2)nc1 [Compound 4, N-(3-(6-(4-chlorophenethoxy)pyridazin-3-yl)phenyl)-6-morpholinopyridine-3-sulfonamide] | 5.55 |  |
| CC(=O)Nc1ccc(S(=O)(=O)Nc2cccc(-c3ccc(OCCc4ccc(Cl)cc4)nn3)c2)cc1 [Compound 5, N-(4-(N-(3-(6-(4-chlorophenethoxy)pyridazin-3-yl)phenyl)sulfamoyl)phenyl)acetamide] | 27.7 |  |
| CCN(Cc1ccccc1)c1ccc(-c2cccc(NS(=O)(=O)N(C)C)c2)nn1 [Compound 6, N-(3-(6-(benzyl(ethyl)amino)pyridazin-3-yl)phenyl)dimethylaminosulfonamide] | 1.4 |  |
| CCN(Cc1ccccc1)c1ccc(-c2cccc(NS(C)(=O)=O)c2)nn1 [Compound 7, N-(3-(6-(benzyl(ethyl)amino)pyridazin-3-yl)phenyl)methanesulfonamide] | 2.23 |  |
| CCN(Cc1ccccc1)c1ccc(-c2cccc(NS(=O)(=O)c3ccc(C)cc3)c2)nn1 [Compound 8, N-(3-(6-(benzyl(ethyl)amino)pyridazin-3-yl)phenyl)-4-methylbenzenesulfonamide] | 0.05 |  |
| CCN(Cc1ccccc1)c1ccc(-c2cccc(NS(=O)(=O)c3cccc(Br)c3)c2)nn1 [Compound 9, N-(3-(6-(benzyl(ethyl)amino)pyridazin-3-yl)phenyl)-3-bromobenzenesulfonamide] | 0.05 |  |
| CCN(Cc1ccccc1)c1ccc(-c2cccc(NS(=O)(=O)C(F)(F)F)c2)nn1 [Compound 10, N-(3-(6-(benzyl(ethyl)amino)pyridazin-3-yl)phenyl)-1,1,1-trifluoromethanesulfonamide] | 7.92 |  |
| COc1ccc(S(=O)(=O)NC(=O)c2cccc(-c3ccc(OCCc4ccc(Cl)cc4)nn3)c2)cc1 [Compound 11, 3-(6-(4-chlorophenethoxy)pyridazin-3-yl)-N-(4-methoxyphenylsulfonyl)benzamide] | 11.4 |  |
| O=C(NS(=O)(=O)c1ccc(F)cc1)c1cccc(-c2ccc(OCCc3ccc(Cl)cc3)nn2)c1 [Compound 12, 3-(6-(4-chlorophenethoxy)pyridazin-3-yl)-N-(4-fluorophenylsulfonyl)benzamide] | 11.7 |  |
| CCS(=O)(=O)NC(=O)c1cccc(-c2ccc(OCCc3ccc(Cl)cc3)nn2)c1 [Compound 13, 3-(6-(4-chlorophenethoxy)pyridazin-3-yl)-N-(ethylsulfonyl)benzamide] | 18.7 |  |
| CC(C)(C)c1ccc(S(=O)(=O)NC(=O)c2cccc(-c3ccc(OCCc4ccc(Cl)cc4)nn3)c2)cc1 [Compound 14, N-(4-tert-butylphenylsulfonyl)-3-(6-(4-chlorophenethoxy)pyridazin-3-yl)benzamide] | 20.1 |  |
| O=C(NS(=O)(=O)c1ccc(F)c(F)c1)c1cccc(-c2ccc(OCCc3ccc(Cl)cc3)nn2)c1 [Compound 15, 3-(6-(4-chlorophenethoxy)pyridazin-3-yl)-N-(3,4-difluorophenylsulfonyl)benzamide] | 27.7 |  |
| Cc1ccc(S(=O)(=O)Nc2cccc(-c3ccc(NCc4ccccc4)nn3)c2)cc1 [Compound 16, N-(3-(6-(benzylamino)pyridazin-3-yl)phenyl)-4-methylbenzenesulfonamide] | 2.24 |  |
| O=C(NS(=O)(=O)Cc1ccccc1)c1cccc(-c2ccc(OCCc3ccc(Cl)cc3)nn2)c1 [Compound 17, N-(benzylsulfonyl)-3-(6-(4-chlorophenethoxy)pyridazin-3-yl)benzamide] | 6.05 |  |
| CC(C)(C)c1ccc(S(=O)(=O)Nc2cccc(-c3ccc(OCCc4ccc(Cl)cc4)nn3)c2)cc1 [Compound 18, 4-tert-butyl-N-(3-(6-(4-chlorophenethoxy)pyridazin-3-yl)phenyl)benzenesulfonamide] | 8.09 |  |
| O=C(NS(=O)(=O)c1ccc(F)c(F)c1)c1cccc(-c2ccc(OCCc3ccc(Cl)cc3)nn2)c1 [Compound 19, 3-(6-(4-chlorophenethoxy)pyridazin-3-yl)-N-(3,4-difluorophenylsulfonyl)benzamide] | 13.9 |  |
| O=S(=O)(CC(F)(F)F)Nc1cccc(-c2ccc(OCCc3ccc(Cl)cc3)nn2)c1 [Compound 20, N-(3-(6-(4-chlorophenethoxy)pyridazin-3-yl)phenyl)-2,2,2-trifluoroethanesulfonamide] | 14.8 |  |
| O=C(NS(=O)(=O)c1ccc(F)cc1F)c1cccc(-c2ccc(OCCc3ccc(Cl)cc3)nn2)c1 [Compound 21, 3-(6-(4-chlorophenethoxy)pyridazin-3-yl)-N-(2,4-difluorophenylsulfonyl)benzamide] | 18.7 |  |
| O=S(=O)(Nc1ccc(-c2ccc(OCCc3ccc(Cl)cc3)nn2)cc1)C(F)(F)F [Compound 22, N-(4-(6-(4-chlorophenethoxy)pyridazin-3-yl)phenyl)-1,1,1-trifluoromethanesulfonamide] | 2.84 |  |
| Cc1ccc(S(=O)(=O)NC(=O)c2ccc(-c3ccc(OCCc4ccc(Cl)cc4)nn3)cc2)cc1 [Compound 23, 4-(6-(4-chlorophenethoxy)pyridazin-3-yl)-N-tosylbenzamide] | 3.03 |  |
| CC(C)CS(=O)(=O)Nc1ccc(-c2ccc(OCCc3ccc(Cl)cc3)nn2)cc1 [Compound 24, N-(4-(6-(4-chlorophenethoxy)pyridazin-3-yl)phenyl)-2-methylpropane-1-sulfonamide] | 15.4 |  |
| CCN(Cc1ccccc1)c1ccc(-c2cccc(N3CCCS3(=O)=O)c2)nn1 [Compound 26, Benzyl-{6-[3-(1,1-dioxo-isothiazolidin-2-yl)-phenyl]-pyridazin-3-yl}-ethylamine] | 3.77 |  |
